We go through 14 compounds from ChEMBL document CHEMBL3112448, “Selective COX-1 inhibition as a target of theranostic novel diarylisoxazoles” (Eur J Med Chem, 2014).

A word on the pIC50: it is −log10 of the IC50, conventionally taken in molar units. The term inhibition denotes the relative decrease from the control value, in per cent.

The structures appear in SMILES notation. pIC50: −log10 of the molar value. Activity calls are given as the source filed them. No cut-off for these calls is given here.

The target in one assay is Prostaglandin G/H synthase 1 (Homo sapiens, UniProt P23219). Kind of assay: Inhibition of COX1 in human OVCAR3 cells using [14C]arachidonic acid as substrate preincubated for 30 mins before substrate addition by radioactivity scanning technique. It is filed as cell-based, OVCAR-3.
Prostaglandin G/H synthase 1, sequence (P23219 whole entry): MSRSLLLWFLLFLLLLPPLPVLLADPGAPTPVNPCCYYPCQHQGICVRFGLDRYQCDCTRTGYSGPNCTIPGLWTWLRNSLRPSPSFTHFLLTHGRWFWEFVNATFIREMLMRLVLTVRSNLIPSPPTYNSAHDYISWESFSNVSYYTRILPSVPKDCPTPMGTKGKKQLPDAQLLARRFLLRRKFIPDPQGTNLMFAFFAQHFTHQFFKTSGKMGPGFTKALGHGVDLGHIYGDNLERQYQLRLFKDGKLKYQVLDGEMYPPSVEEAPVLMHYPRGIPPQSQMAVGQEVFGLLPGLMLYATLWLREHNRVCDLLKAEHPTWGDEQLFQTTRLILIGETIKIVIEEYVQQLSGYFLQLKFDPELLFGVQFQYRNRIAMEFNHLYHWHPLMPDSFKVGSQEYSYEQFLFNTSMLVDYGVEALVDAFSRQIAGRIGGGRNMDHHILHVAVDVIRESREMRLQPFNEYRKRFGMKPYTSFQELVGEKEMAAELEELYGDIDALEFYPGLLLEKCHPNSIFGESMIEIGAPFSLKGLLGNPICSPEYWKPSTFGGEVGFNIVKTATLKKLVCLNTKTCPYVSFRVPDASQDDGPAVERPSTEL
Conditions: not given
`Nc1onc(-c2ccc(Cl)o2)c1-c1ccccc1`: the pIC50 is 6.24.

The next assay has as its target T1, Prostaglandin G/H synthase 1 (Ovis aries) (UniProt P05979).
T1 sequence (whole entry): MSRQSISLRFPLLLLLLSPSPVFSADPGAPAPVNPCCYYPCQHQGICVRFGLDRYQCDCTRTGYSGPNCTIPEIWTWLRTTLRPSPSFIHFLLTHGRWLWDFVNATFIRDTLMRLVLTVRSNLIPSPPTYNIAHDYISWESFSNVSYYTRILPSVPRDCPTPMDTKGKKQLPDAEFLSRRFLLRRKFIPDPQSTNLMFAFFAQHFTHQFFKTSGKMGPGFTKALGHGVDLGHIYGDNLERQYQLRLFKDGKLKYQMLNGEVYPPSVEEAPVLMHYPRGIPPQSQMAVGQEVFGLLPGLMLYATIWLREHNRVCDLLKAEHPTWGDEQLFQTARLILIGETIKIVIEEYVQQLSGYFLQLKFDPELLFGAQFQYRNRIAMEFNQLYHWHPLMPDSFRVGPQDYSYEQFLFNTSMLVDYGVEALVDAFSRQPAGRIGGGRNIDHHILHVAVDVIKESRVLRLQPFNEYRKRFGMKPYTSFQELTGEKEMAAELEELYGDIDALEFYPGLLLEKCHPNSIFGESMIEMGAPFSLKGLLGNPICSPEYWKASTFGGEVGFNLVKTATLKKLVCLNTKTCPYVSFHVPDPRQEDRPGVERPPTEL
As to conditions: at 50 µM.
Description: Inhibition of ovine COX1 at 50 uM by peroxidase activity-based colorimetric assay
In the case of `CCCc1onc(-c2ccc(Cl)o2)c1-c1ccccc1`, the inhibition was determined as 17%. In turn, `Clc1ccc(-c2noc(CBr)c2-c2ccccc2)o1` returned an inhibition of 35%. Turning to `COc1ccccc1-c1noc(C)c1-c1ccccc1`, the inhibition was found to be 61%. On to `Cc1onc(-c2ccc(Cl)o2)c1-c1ccc([N+](=O)[O-])cc1`, for which the inhibition entry was “inactive”.

The compound `Nc1onc(-c2ccc(Cl)o2)c1-c1ccccc1` showed an inhibition of 94%. `Cc1onc(-c2ccc(Cl)o2)c1-c1ccc(N)cc1` showed an inhibition of 78%.

As for `COC(=O)Cc1onc(-c2ccc(Cl)o2)c1-c1ccccc1`, the inhibition entry was “inactive”. Take `N#CCc1onc(-c2ccc(Cl)o2)c1-c1ccccc1`: the inhibition came to 12%.

In the case of `Cc1onc(-c2ccc(Cl)o2)c1-c1ccccc1`, the inhibition was determined as 69%. With `O=C(O)Cc1onc(-c2ccc(Cl)o2)c1-c1ccccc1`, the inhibition is 32%. As for `CN(C)c1onc(-c2ccc(Cl)o2)c1-c1ccccc1`, the inhibition entry is “inactive”. The same measure, in the same setting: for `CC(=O)N(C(C)=O)c1onc(-c2ccc(Cl)o2)c1-c1ccccc1` the value was 25%; for `COc1ccccc1-c1noc(C(F)(F)F)c1-c1ccccc1`, 39%; for `CCc1onc(-c2ccc(Cl)o2)c1-c1ccccc1`, 55%.
